Laboratory results published in patent US11076595B2, “1-(n,n-disubstituted carbamoyl) 4-(substituted sulfonyl)triazolin-5-one derivative, 4-(n,n-disubstituted carbamoyl) 1-(substituted sulfonyl)triazolin-5-one derivative, and herbicide containing said derivative as active ingredient” (HOKKO CHEMICAL INDUSTRY CO., LTD., priority 2017, dated 2021).

Legend:
Scirpus juncoides [1] = experiment: Test Example 2: herbicidal effect test by treatment during growing period in paddy field; type: in vivo; settings: treatment 7 days after sowing, 120 g/10a, evaluated 14 days after treatment
Procedure, shortened: (§1)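 Paddy soil in Wagner pots, flooded to ~3 cm; 30 seeds per species sown 0–1 cm deep, greenhouse-grown. Emulsifiable concentrate diluted in water and dripped into flood water 7 days after sowing at 120 g active ingredient per 10 are. Dry-weight suppression vs untreated assessed 14 days post-treatment, two replicates.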

Monochoria vaginalis [2] = experiment: as above; type: in vivo; settings: treatment 7 days after sowing, 120 g/10a, evaluated 14 days after treatment
Procedure, shortened: as §1

Echinochloa crus-galli [3] = experiment: as above; type: in vivo; settings: treatment 7 days after sowing, 120 g/10a, evaluated 14 days after treatment
Procedure, shortened: as §1

Lindernia pyxidaria [4] = experiment: as above; type: in vivo; settings: treatment 7 days after sowing, 120 g/10a, evaluated 14 days after treatment
Procedure, shortened: as §1

Amaranthus viridis [5] = experiment: Test Example 4: herbicidal effect test by foliage treatment in upland field; type: in vivo; settings: upland field foliage treatment 7 days after sowing; 120 g/10a; evaluated 14 days after treatment
Procedure, shortened: (§2)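 In this upland pot test, each species is sown at 20 seeds per pot. Spraying follows one week later at a dose of 120 g active ingredient per 10 are. Weed suppression, calculated from average dry weights, is determined 14 days afterward.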

Chenopodium album [6] = experiment: as above; type: in vivo; settings: upland field foliage treatment 7 days after sowing; 120 g/10a; evaluated 14 days after treatment
Procedure, shortened: as §2

Echinochloa crus-galli [7] = experiment: as above; type: in vivo; settings: upland field foliage treatment 7 days after sowing; 120 g/10a; evaluated 14 days after treatment
Procedure, shortened: as §2

crabgrass [8] = experiment: as above; type: in vivo; settings: upland field foliage treatment 7 days after sowing; 120 g/10a; evaluated 14 days after treatment
Procedure, shortened: as §2

Scirpus juncoides [9] = experiment: Test Example 1: herbicidal effect test by soil treatment in paddy field; type: in vivo; settings: 120 g/10a, paddy soil treatment just after sowing, 14 days after treatment
Procedure, shortened: (§3)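 In a greenhouse, puddled paddy soil in Wagner pots held ~3 cm flooding over freshly sown seeds. Treatment was dropwise application of the diluted formulation, 120 g a.i. per 10 are, with two replications; suppression was scored from dry weights after 14 days.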

Monochoria vaginalis [10] = experiment: as above; type: in vivo; settings: 120 g/10a, paddy soil treatment just after sowing, 14 days after treatment
Procedure, shortened: as §3

Echinochloa crus-galli [11] = experiment: as above; type: in vivo; settings: 120 g/10a, paddy soil treatment just after sowing, 14 days after treatment
Procedure, shortened: as §3

Lindernia pyxidaria [12] = experiment: as above; type: in vivo; settings: 120 g/10a, paddy soil treatment just after sowing, 14 days after treatment
Procedure, shortened: as §3

Amaranthus viridis [13] = experiment: Test Example 3: herbicidal effect test by soil treatment in upland field; type: in vivo; settings: upland field soil treatment 1 day after sowing; 120 g/10a; evaluated 14 days after treatment
Procedure, shortened: (§4)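 Pre-emergence soil treatment: 20 seeds of each weed were mixed into the top 1 cm of alluvial field soil in 36 cm^2 pots. One day after sowing, a water-diluted emulsifiable concentrate was sprayed on the soil at 100 liter per 10 are (120 g active ingredient per 10 are), with two replications. Suppression (%) was derived from dry weight versus untreated plots after 14 days.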

Chenopodium album [14] = experiment: as above; type: in vivo; settings: upland field soil treatment 1 day after sowing; 120 g/10a; evaluated 14 days after treatment
Procedure, shortened: as §4

Echinochloa crus-galli [15] = experiment: as above; type: in vivo; settings: upland field soil treatment 1 day after sowing; 120 g/10a; evaluated 14 days after treatment
Procedure, shortened: as §4

crabgrass [16] = experiment: as above; type: in vivo; settings: upland field soil treatment 1 day after sowing; 120 g/10a; evaluated 14 days after treatment
Procedure, shortened: as §4

Compound	weed suppression rate, Scirpus juncoides (Scirpus juncoides [1])	weed suppression rate, Monochoria vaginalis (Monochoria vaginalis [2])	weed suppression rate, Echinochloa crus-galli (Echinochloa crus-galli [3])	weed suppression rate, Lindemia pyxidaria (Lindernia pyxidaria [4])	melting point	herbicidal effect (weed suppression rate), Amaranthus viridis (Amaranthus viridis [5])	herbicidal effect (weed suppression rate), Chenopodium album (Chenopodium album [6])	herbicidal effect (weed suppression rate), Echinochloa crus-galli (Echinochloa crus-galli [7])	herbicidal effect (weed suppression rate), Crabgrass (crabgrass [8])	weed suppression rate, Scirpus juncoides (Scirpus juncoides [9])	weed suppression rate, Monochoria vaginalis (Monochoria vaginalis [10])	weed suppression rate, Echinochloa crus-galli (Echinochloa crus-galli [11])	weed suppression rate, Lindemia pyxidaria (Lindernia pyxidaria [12])	herbicidal effect (weed suppression rate), Amaranthus viridis (Amaranthus viridis [13])	herbicidal effect (weed suppression rate), Chenopodium album (Chenopodium album [14])	herbicidal effect (weed suppression rate), Echinochloa crus-galli (Echinochloa crus-galli [15])	herbicidal effect (weed suppression rate), Crabgrass (crabgrass [16])
CC(C)N(C(=O)n1ncn(S(=O)(=O)C(C)C)c1=O)c1ccccc1 [Compound 1-54]	90%	80%	90%	80%	92 to 94 °C	90%	80%	80%	90%	90%	80%	90%	80%				
CC(C)N(C(=O)n1ncn(S(=O)(=O)C2CC2)c1=O)c1ccc(F)cc1F [Compound 1-150, 4-cyclopropylsulfonyl-N-(2,4-difluorophenyl)-N-isopropyl-5-oxo-1,2,4-triazole-1-carboxamide]	90%	90%	100%	90%	144 to 146 °C	90%	80%	80%	90%	100%	100%	100%	100%	90%	100%	100%	100%
CC(C)N(C(=O)n1ncn(S(=O)(=O)C2CC2)c1=O)c1ccccc1 [Compound 1-168]	90%	80%	90%	80%	102 to 104 °C					90%	80%	90%	80%				
